# Data from patent US11299514B2, “Antimicrobial peptide AS-hepc3(48-56) of Acanthopagrus schlegelii and method thereof” (Xiamen University, priority 2019, dated 2022).
# Peptide text beside a SMILES is read from it.
# Assays:
# [1] = tested on: mouse hepatocytes (AML12); assay: in vitro; format: cell-based
# Source text: (§1) FIGS. 2A and 2B illustrate cytotoxicity experimental result diagrams of antimicrobial peptide AS-hepc3(48-56) obtained by an MTS-PMS method, wherein FIG. 2A represents AML12 cells (alpha mouse liver 12 cells), FIG. 2B represents 293T cells, the abscissa represents an AS-hepc3(48-56) protein concentration (μM), and the ordinate represents a cell proliferation rate (%).
# (§2) 1. Mouse hepatocytes (AML12) (mouse liver cells) and human kidney epithelial cells (293T) were selected to detect a cytotoxicity of the antimicrobial peptide AS-hepc3(48-56).
# (§3) 2. A detailed method is as follows.
# (§4) (6) Well-grown mouse hepatocytes (AML12) and human kidney epithelial cells (293T) were collected, a cell concentration was adjusted to 10^3-10^4 cells/mL, the cells were evenly blown, and 100 μL of strain suspension was placed in each well of a 96-well cell culture plate and was static cultured at a condition of 37° C. and […]. More than 50% of the strains were adhered to a wall.
# (§5) (7) The medium is carefully sucked out, a corresponding medium comprising different concentrations (0 μM, 40 μM, or 80 μM) was added and was static cultured for 24 hours at a condition of 37° C. and […].
# (§6) (8) After 20 μL of MTS-PMS solution was added and was incubated for 3 hours in the dark, an OD492 value (optical density reading at 492 nm wavelength) was detected by a microplate reader to evaluate the cytotoxicity of the antimicrobial peptide AS-hepc3(48-56).
# [2] = tested on: human kidney epithelial cells (293T); assay: in vitro; format: cell-based
# Source text: as §1, §2, §3, §4, §5, §6
# in vitro = format: cell-based, human
# Source text: as §1, §2, §3, §4, §5, §6
# [3] = tested on: Pseudomonas aeruginosa PAO1; format: cell-based
# Source text: (§7) 1. Strains were as follows: Pseudomonas aeruginosa PAO1, drug-resistant clinical Pseudomonas aeruginosa isolates QZ19121, QZ19122, QZ19123, QZ19124, and QZ19125, drug-resistant clinical Acinetobacter baumannii isolates QZ18050 and QZ18055, clinical isolation of resistant Staphylococcus aureus QZ18090 and QZ18091, drug-resistant clinical Klebsiella pneumoniae isolate QZ18106, and drug-resistant clinical Escherichia coli isolates QZ18109 and QZ18110. Pseudomonas aeruginosa PAO1 was purchased from the China General Microbiological Culture Collection Center, Institute of Microbiology, Chinese Academy of Sciences, and the clinical isolates were from the Laboratory of Second Affiliated Hospital of Fujian Medical University.
# as §3
# (§8) (1) Preserved strains were streaked on MH plates (Mueller-Hinton agar plates) and were cultured at 37° C. overnight;
# (§9) (2) A single clone was screened and was cultured in a MH liquid medium (Mueller-Hinton agar liquid medium) at 37° C. and 200 rpm (revolutions per minute) to a logarithmic stage;
# (§10) (3) The strains were collected at 5000 g (i.e., a 5000 g centrifugal force) for 2 minutes, the strains were resuspended with a 10 mM (mmol/L) sodium phosphate buffer (pH=7.4), and the strains were finally diluted with the MH liquid medium to enable a final concentration of the strains to be 5×10^5 cfu/mL;
# (§11) (4) Synthesized powder of the antimicrobial peptide AS-hepc3(48-56) was dissolved in sterile Milli-Q water, and a peptide concentration (i.e., a concentration of the antimicrobial peptide AS-hepc3(48-56)) was diluted to 2 μM, 4 μM, 8 μM, 16 μM, 32 μM, or 64 μM in double ratios; and
# (§12) (5) On a polypropylene sterile 96-well culture plate, each test strain was arranged into a blank control group, a negative control group, and a test group, and three parallel groups of each test group were as follows: • a) Blank control group: 50 μL of test peptide sample (i.e., the antimicrobial peptide AS-hepc3(48-56)) and 50 μL of medium (i.e., the Mueller-Hinton agar liquid medium); • b) Negative control group: 50 μL of sterile Milli-Q water and 50 μL of strain suspension; and • c) Test group: 50 μL of test peptide sample and 50 μL of the strain suspension.
# (§13) The polypropylene sterile 96-well culture plate was placed in a 37° C. incubator for 18-24 hours, and MIC results in the test group were observed. After the test group was pipetted and mixed, an appropriate amount of the strain was drawn and spread on the MH plate and was cultured at 37° C. overnight, and MBC results were observed.
# (§14) Annotations: MIC: minimum inhibitory concentration (μM), which is represented by a-b; a is a maximum peptide concentration at which a growth of the strain can be observed by naked eyes, and b is a minimum peptide concentration at which no growth of the strain can be observed by the naked eyes. MBC: Minimum bactericidal concentration (μM), which is a concentration that kills 99.9% of microbes.
# [4] = tested on: drug-resistant clinical Pseudomonas aeruginosa isolate QZ19123; format: cell-based; details: P. aeruginosa QZ19123
# Source text: as §7, §3, §8, §9, §10, §11, §12, §13, §14
# [5] = tested on: drug-resistant clinical Pseudomonas aeruginosa isolate QZ19121; format: cell-based; details: P. aeruginosa QZ19121
# Source text: as §7, §3, §8, §9, §10, §11, §12, §13, §14
# [6] = tested on: drug-resistant clinical Pseudomonas aeruginosa isolate QZ19125; format: cell-based; details: P. aeruginosa QZ19125
# Source text: as §7, §3, §8, §9, §10, §11, §12, §13, §14
# [7] = tested on: drug-resistant clinical Pseudomonas aeruginosa isolate QZ19122; format: cell-based; details: P. aeruginosa QZ19122
# Source text: as §7, §3, §8, §9, §10, §11, §12, §13, §14
# [8] = tested on: resistant Staphylococcus aureus QZ18091; format: cell-based; details: S. aureus QZ18091
# Source text: as §7, §3, §8, §9, §10, §11, §12, §13, §14
# [9] = tested on: drug-resistant clinical Klebsiella pneumoniae isolate QZ18106; format: cell-based; details: K. pneumoniae QZ18106
# Source text: as §7, §3, §8, §9, §10, §11, §12, §13, §14
# [10] = tested on: drug-resistant clinical Acinetobacter baumannii isolate QZ18050; format: cell-based; details: A. baumannii QZ18050
# Source text: as §7, §3, §8, §9, §10, §11, §12, §13, §14
# [11] = tested on: drug-resistant clinical Pseudomonas aeruginosa isolate QZ19124; format: cell-based; details: P. aeruginosa QZ19124
# Source text: as §7, §3, §8, §9, §10, §11, §12, §13, §14
# [12] = tested on: drug-resistant clinical Escherichia coli isolate QZ18109; format: cell-based; details: E. coli QZ18109
# Source text: as §7, §3, §8, §9, §10, §11, §12, §13, §14
# [13] = tested on: resistant Staphylococcus aureus QZ18090; format: cell-based; details: S. aureus QZ18090
# Source text: as §7, §3, §8, §9, §10, §11, §12, §13, §14
# [14] = tested on: drug-resistant clinical Acinetobacter baumannii isolate QZ18055; format: cell-based; details: A. baumannii QZ18055
# Source text: as §7, §3, §8, §9, §10, §11, §12, §13, §14
# [15] = tested on: drug-resistant clinical Escherichia coli isolate QZ18110; format: cell-based; details: E. coli QZ18110
# Source text: as §7, §3, §8, §9, §10, §11, §12, §13, §14
# [16] = tested on: Pseudomonas aeruginosa PAO1; assay: Comparative experiment of drug resistance (serial passage, change of MIC); format: cell-based
# Source text: FIG. 1 illustrates a comparison of antimicrobial resistance of an antimicrobial peptide AS-hepc3(48-56) of Acanthopagrus schlegelii and antibiotic meropenem against Pseudomonas aeruginosa PAO1, wherein the abscissa represents time (days), and the ordinate represents a ratio of change of a minimum inhibition concentration (MIC) and an initial antimicrobial concentration.
# 1. Comparison of the antimicrobial peptide AS-hepc3(48-56) and antibiotic meropenem against Pseudomonas aeruginosa PAO1. Pseudomonas Aeruginosa PAO1 was purchased from the China General Microbiological Culture Collection Center, Institute of Microbiology, Chinese Academy of Sciences.
# A detailed method is as follows:
# (1) Preserved Pseudomonas aeruginosa PAO1 was streaked on MH plates and was cultured at 37° C. overnight;
# (2) A single clone was screened and was cultured in MH liquid medium at 37° C. and 200 rpm to a logarithmic stage;
# (3) The strain was corrected at 5000 g for 2 minutes, the strain was resuspended in 10 mM sodium phosphate buffer (pH=7.4), and the strain was finally diluted with a mixture of the 10 mM sodium phosphate buffer and the MH liquid medium to enable a final concentration of the stain to be 5×10^5 cfu/mL;
# (4) Synthesized powder of the antimicrobial peptide AS-hepc3(48-56) was dissolved in sterile Milli-Q water, and a peptide concentration was diluted to 8 μM, 12 μM, 16 μM, 24 μM, 32 μM, 48 μM, 64 μM, or 96 μM in double ratios;
# (5) Antibiotic meropenem powder was dissolved in sterile Milli-Q water to configure a 5 mg/mL reserved solution, filtered by a 0.22 μm filter membrane, and diluted to different work concentrations being 0.0625 μg/mL, 0.125 μg/mL, 0.25 μg/mL, 0.5 μg/mL, 1 μg/mL, 2 μg/mL, 4 μg/mL, 8 μg/mL, 16 μg/mL, 32 μg/mL, 48 μg/mL, 64 μg/mL, 96 μg/mL, 128 μg/mL, 192 μg/mL, 256 μg/mL, or 512 μg/mL; and
# (6) On a 96-well cell culture plate, each test strain was arranged into a blank control group, a negative control group, and a test group, and three parallel groups of each test group were as follows: • a) Blank control group: 50 μL of test peptide sample and 50 μL of medium; • b) Negative control group: 50 μL of sterile Milli-Q water and 50 μL of strain suspension; and • c) Test group: 50 μL of the test peptide sample and 50 μL of the strain suspension.
# The 96-well cell culture plate was placed in a 37° C. incubator and was cultured for 18-24 hours, and MIC results in the test group were observed. The strain having the maximum peptide concentration at which the growth of the strain could be observed was repeatedly diluted thousand-fold, and 50 μL was repeatedly taken for a next generation of antimicrobial experiments for 150 generations.
# [17] = human, 293T cells (human kidney epithelial cells)
# [18] = mouse, AML12 cells (mouse hepatocytes)
structure (smiles),measurement,setting,value
"N=C(N)NCCC[C@H](NC(=O)[C@H](CS)NC(=O)[C@H](CCCNC(=N)N)NC(=O)[C@H](CCCNC(=N)N)NC(=O)[C@H](CCCNC(=N)N)NC(=O)[C@@H](N)CCCNC(=N)N)C(=O)N[C@@H](Cc1ccccc1)C(=O)N[C@@H](CS)C(=O)N[C@@H](CS)C(=O)O [AS-hepc3(48-56), Arg-Arg-Arg-Arg-Cys-Arg-Phe-Cys-Cys] (H-RRRRCRFCC-OH; N-terminus and C-terminus assumed)",cytotoxicity (in words),[1],no cytotoxicity
same,cytotoxicity (in words),[2],no cytotoxicity
same,"viability at 24 h, 40 µM",in vitro; [17],> 95%
same,"viability at 24 h, 80 µM",in vitro; [17],> 95%
same,"viability at 24 h, 40 µM",in vitro; [18],> 95%
same,"viability at 24 h, 80 µM",in vitro; [18],> 95%
same,MBC,[3],8 µM
same,MIC,[3],4 to 8 µM
same,MBC,[4],16 µM
same,MIC,[4],4 to 8 µM
same,MBC,[5],16 µM
same,MIC,[5],4 to 8 µM
same,MBC,[6],16 µM
same,MIC,[6],8 to 16 µM
same,MBC,[7],16 µM
same,MIC,[7],4 to 8 µM
same,MBC,[8],8 µM
same,MIC,[8],4 to 8 µM
same,MBC,[9],>32 µM
same,MIC,[9],>32 µM
same,MBC,[10],>32 µM
same,MIC,[10],>32 µM
same,MBC,[11],16 µM
same,MIC,[11],4 to 8 µM
same,MBC,[12],16 µM
same,MIC,[12],4 to 8 µM
same,MBC,[13],8 µM
same,MIC,[13],4 to 8 µM
same,MBC,[14],>32 µM
same,MIC,[14],>32 µM
same,MBC,[15],8 µM
same,MIC,[15],4 to 8 µM
same,anti-Pseudomonas aeruginosa MIC value relative to initial MIC value,[16]; after 150 days of continuous use,twice
C[C@@H](O)[C@H]1C(=O)N2C(C(=O)O)=C(S[C@@H]3CN[C@H](C(=O)N(C)C)C3)[C@H](C)[C@H]12 [meropenem],anti-Pseudomonas aeruginosa MIC value relative to initial MIC value,[16]; after 3 days of continuous use,4 times
same,anti-Pseudomonas aeruginosa MIC value relative to initial MIC value,[16]; after 10 days of continuous use,16 times
same,anti-Pseudomonas aeruginosa MIC value relative to initial MIC value,[16]; after 90 days of use,1024 times
